One data set concerns C6 cells. The experiment in a line: Annexin V-FITC/PI apoptosis study. As to conditions: PTX 1 μg/mL, 24 h, flow cytometer, n = 3, mean ± SD. In kind it is cell-based, murine. For orientation: In flow cytometry, cells or beads pass a laser one at a time.
Data set [1] has as its system intracranial C6 glioma bearing mice. The experiment in a line: Anti-glioma efficacy. In kind it is in vivo, Balb/c mice. Particulars: versus Saline; PTX 3 mg/kg i.v. x 6; n = 9.
A short description of data set [2]: In vitro drug release by dialysis. In kind it is physicochemical. Particulars: dialysis (MWCO 8-14 kDa), PBS pH 7.4 with 0.1% Tween 80, 37 °C, 48 h, HPLC, n = 3.

Bounds are passed on as bounds.

As to `CC(=O)O[C@H]1C(=O)[C@@]2(C)[C@H]([C@H](OC(=O)c3ccccc3)[C@]3(O)C[C@H](OC(=O)[C@H](O)[C@@H](NC(=O)c4ccccc4)c4ccccc4)C(C)=C1C3(C)C)[C@]1(OC(C)=O)CO[C@@H]1C[C@@H]2O` [free PTX, Paclitaxel], the “apoptosis and necrosis rates of C6 cells” value with C6 cells stood at 75.65 ± 1.77%. In data set [1], this compound came in with an Increased survival time of 53%. The compound further displayed a PTX release behavior in data set [2] not above 8 h.

These data come from PMC4729767 (Theranostics, 2016).
